# Measurements reported in paper PMC8273159, “In Vivo Behavior of the Antibacterial Peptide Cyclo[RRRWFW], Explored Using a 3-Hydroxychromone-Derived Fluorescent Amino Acid” (Frontiers in Chemistry, 2021).
# Numbered stars: 1 amine (or outer) side, 2 acyl side, 3 side chain; on linkers, the order of the positions; unused ones are H or OH. Square brackets hold non-standard residues; d marks the D form. Peptide text beside a SMILES is read from it. X1 = O=C([C@H](Cc1ccc2oc(-c3ccco3)c(O)c(=O)c2c1)N[*:1])[*:2]
# Tests used:
# [1] = system: Bacillus spizizenii (DSM 347); assay type: cell-based; conditions: DSM 347, 20 h
# Procedure: (§1) Bacillus spizizenii (DSM 347) and Escherichia coli (DSM 1116) were purchased from the German Collection of Microorganisms and Cell Cultures. The bacterial strains were maintained frozen at −80°C using a bacterial Cryobank System (Mast Diagnostica). To refresh bacterial cells on single glass beads, they were grown overnight in Müller-Hinton (MH) medium, and colonies were obtained by streaking on MH agar. Then, colony cells were used to inoculate MH broth up to OD = 0.02 and grew at 37°C overnight. These overnight cultures were used to inoculate the test culture, which was grown for 3–4 h until it reached exponential growth. HeLa (ECACC 93021013) and HEK293 (ECACC 85120602) cells were purchased from […] and were routinely cultured in Roswell Park Memorial Institute (RPMI) 1640 medium or Dulbecco’s modified Eagle medium (DMEM) supplemented with 10% fetal calf serum (FCS) and 1% penicillin/streptomycin, respectively. Cells were passaged every 2–3 days and used until passage 35. All animal cell types were cultured at 37 °C in a 5% CO2 atmosphere and tested negative for mycoplasma.
# (§2) The bacteriostatic activity of the peptides was characterized by determining minimal culture growth inhibitory concentrations (MICs) in planktonic cultures. Serial twofold dilutions of each peptide (in-well concentration range: 128 μg/ml to […]) were prepared in MH broth and aliquoted into round-bottom 96-well microtiter plates (Sarstedt). Each well was inoculated with a standardized inoculum to achieve a final test concentration of approximately 10^6 cells/ml. […] The measurements were repeated twice with three replicates each time.
# [2] = system: Escherichia coli (DSM 1116); assay type: cell-based; conditions: DSM 1116, 20 h
# Procedure: as §1, §2
# [3] = system: human erythrocyte suspension; test: Hemolysis assay (hemoglobin release); assay type: cell-based; conditions: Tris-HCl pH 7.6, 37°C, 30 min
# From the text: All chemicals were purchased from Sigma-Aldrich, Iris Biotech or Biosolve and were used without further purification. Ultrapure deionized (MilliQ, Millipore) water was used to prepare aqueous solutions and mixtures. Solvents for peptide purification and optical spectroscopy were of HPLC grade and were degassed before use. Culture media and supplements for animal cells were from Thermo Fisher, those for bacterial culturing were from Becton, and those for zebrafish embryo handling were freshly prepared. Citrate phosphate dextrose-stabilized blood bags with erythrocyte suspensions of healthy donors for hemolysis assays were obtained from the blood bank of the Karlsruhe municipal hospital.
# Hemolytic activity was examined using the same serial twofold dilution concentrations as for the MIC assay. […] The tubes were centrifuged at 13,000 rpm for 10 min to pellet the cells, and the absorbance at 540 nm was recorded against a negative control (cells without peptide, accounting for autohaemolysis). The lysis percentage was calculated relative to lysis levels induced by 1% (v/v) Triton X-100. The absorbance measurements were repeated five times, and the averaged values were used.
# [4] = Analytical C18 HPLC retention time as measure of overall hydrophobicity; assay type: physicochemical; conditions: chromatographic, C18 phase (Vydac), water/acetonitrile with 0.1% TFA, 1% B/min gradient, column 40°C; used to assess overall hydrophobicity
# Procedure: The peptides were purified (>95%) by reversed-phase high-performance liquid chromatography (HPLC) employing C18 stationary phase columns (Vydac) and TFA-supplemented (0.1% v/v) water/acetonitrile gradients (4% eluent B/min) without temperature control on a Jasco HPLC system equipped with a diode array detector. Analytical chromatography was performed using the same stationary/mobile phase conditions, employing temperature control (column temperature 40°C) and shallower gradients (1% eluent B/min). All peptides and individual HPLC fractions were characterized by matrix-assisted laser desorption/ionization time-of-flight mass spectrometry (MALDI-TOF MS) using a Bruker Autoflex III instrument in positive reflector detection mode and with α-cyano-4-hydroxycinnamic acid as a matrix. From pure peptide powders, stock solutions were prepared (1 mg/ml) in 30% aqueous acetonitrile and stored at −80°C. For spectroscopy, imaging and bioactivity measurements, aliquots from these solutions were taken a day before the experiment, and peptide samples containing the necessary amount of peptide dry material were obtained by lyophilization overnight.
MIC B. spizizenii [1],MIC E. coli [2],RT (apparent retention time) [4],Structure (SMILES),"death of erythrocytes (hemolysis) ([3]; 30 µM peptide, absorbance 540 nm, relative to 1% Triton X-100, five readings averaged)","hemolytic activity, comparison in words ([3]; human erythrocytes, relative to 1% Triton X-100)"
14.6 µM,29.1 µM,,N=C(N)NCCC[C@@H]1NC(=O)[C@H](CCCNC(=N)N)NC(=O)[C@H](Cc2c[nH]c3ccccc23)NC(=O)[C@H](Cc2ccccc2)NC(=O)[C@H](Cc2ccc3oc(-c4ccco4)c(O)c(=O)c3c2)NC(=O)[C@H](CCCNC(=N)N)NC1=O [cRW-W^1/FHC] (cyclo(FWRRR[X1])),,
4.0 µM,8.1 µM,9 min,"N=C(N)NCCC[C@@H]1NC(=O)[C@H](CCCNC(=N)N)NC(=O)[C@H](Cc2c[nH]c3ccccc23)NC(=O)[C@H](Cc2ccccc2)NC(=O)[C@H](Cc2c[nH]c3ccccc23)NC(=O)[C@H](CCCNC(=N)N)NC1=O [cWFW, cyclo[RRRWFW]] (cyclo(FWRRRW))",,
14.6 µM,29.1 µM,11 min,N=C(N)NCCC[C@@H]1NC(=O)[C@H](CCCNC(=N)N)NC(=O)[C@H](Cc2ccc3oc(-c4ccco4)c(O)c(=O)c3c2)NC(=O)[C@H](Cc2ccccc2)NC(=O)[C@H](Cc2c[nH]c3ccccc23)NC(=O)[C@H](CCCNC(=N)N)NC1=O [cRW-W^3/FHC] (cyclo(F[X1]RRRW)),,

Structure (SMILES),MIC B. spizizenii [1],MIC E. coli [2],RT (apparent retention time) [4],"death of erythrocytes (hemolysis) ([3]; 30 µM peptide, absorbance 540 nm, relative to 1% Triton X-100, five readings averaged)","hemolytic activity, comparison in words ([3]; human erythrocytes, relative to 1% Triton X-100)"
N=C(N)NCCC[C@@H]1NC(=O)[C@H](CCCNC(=N)N)NC(=O)[C@H](Cc2c[nH]c3ccccc23)NC(=O)[C@H](Cc2ccc3oc(-c4ccco4)c(O)c(=O)c3c2)NC(=O)[C@H](Cc2c[nH]c3ccccc23)NC(=O)[C@H](CCCNC(=N)N)NC1=O [cRW-F^2/FHC] (cyclo(RRRW[X1]W)),14.0 µM,28.1 µM,,> 50%,the most hemolytic
